# Activity calls are given as the source filed them. No cut-off for these calls is given here.
# Columns and labels:
# HeLa [1] = experiment: Induction of LC3 autophagy in human HeLa cells stably expressing GFP-LC3 assessed as increasing number of punctuate GFP-LC3 dots at 10 uM after 6 hrs by confocal microscopy; type: functional, cell-based
# HeLa [2] = experiment: Induction of LC3 autophagy in human HeLa cells stably expressing GFP-LC3 assessed as increasing number of punctuate GFP-LC3 dots after 6 to 24 hrs by confocal microscopy; type: functional, cell-based
# SH-SY5Y = experiment: Induction of LC3 autophagy in human SH-SY5Y cells stably expressing GFP-LC3 assessed as increasing number of punctuate GFP-LC3 dots at 10 uM after 6 hrs by confocal microscopy; type: functional, cell-based
# PC-12 [3] = experiment: Induction of autophagic degradation of alpha-synuclein in rat PC12 cells cotransfected with GFP-LC3 and alpha-synuclein-myc at 10 uM after 12 hrs by Western blot analysis in presence of bafilomycin A1; type: functional, cell-based
# HeLa [4] = experiment: Induction of LC3 autophagy in Beclin1 KO human HeLa cells stably expressing GFP-LC3 assessed as increase of the LC3-II level at 10 uM after 6 hrs by Western blotting analysis; type: functional, cell-based
# U2OS = experiment: Induction of LC3 autophagy in human U2OS cells stably expressing GFP-LC3 assessed as increasing number of punctuate GFP-LC3 dots at 10 uM after 6 hrs by confocal microscopy; type: functional, cell-based
# HeLa [5] = experiment: Induction of LC3 autophagy in human HeLa cells stably expressing GFP-LC3 assessed as increasing number of punctuate GFP-LC3 dots at 5 to 10 uM by confocal microscopy; type: functional, cell-based; settings: TDE = time-dependent effect
# HeLa [6] = experiment: Induction of LC3 autophagy in human HeLa cells stably expressing GFP-LC3 assessed as increase of the LC3-II level at 1 to 20 uM by Western blotting analysis; type: functional, cell-based; settings: TDE = time-dependent effect
# HeLa [7] = experiment: Induction of LC3 autophagy in ATG5 KO human HeLa cells stably expressing GFP-LC3 assessed as increasing number of punctuate GFP-LC3 dots at 10 uM after 6 hrs by confocal microscopy; type: functional, cell-based
# [8] = molecular target: T1, c-Jun N-terminal kinase, JNK (Homo sapiens) (UniProt P45983+P53779+P45984); experiment: Induction of JNK phosphorylation in human HeLa cells stably expressing GFP-LC3 assessed as increase of the LC3-II level at 5 uM after 6 hrs by Western blot analysis in presence of SP600125; type: cell-based
# HeLa [9] = experiment: Induction of autophagy in human HeLa cells stably expressing GFP-LC3 assessed as increasing number of punctuate GFP-LC3 dots by high-throughput screening; type: functional, cell-based
# HeLa [10] = experiment: Induction of ROS production in human HeLa cells stably expressing GFP-LC3 assessed as increase of the LC3-II level at 5 to 10 uM after 6 hrs by Western blot analysis in presence of ROS scavenger NAC; type: functional, cell-based
# [11] = molecular target: T1, c-Jun N-terminal kinase, JNK (Homo sapiens); experiment: Induction of JNK phosphorylation in human HeLa cells stably expressing GFP-LC3 assessed as increase of the LC3-II level at 5 uM after 6 hrs by Western blot analysis; type: cell-based
# PC-12 [12] = experiment: Induction of autophagic degradation of alpha-synuclein in […] KO rat PC12 cells cotransfected with GFP-LC3 and alpha-synuclein-myc at 10 uM after 12 hrs by Western blot analysis; type: functional, cell-based
# PC-12 [13] = experiment: Induction of autophagic degradation of alpha-synuclein in rat PC12 cells cotransfected with GFP-LC3 and alpha-synuclein-myc assessed as reduction in protein level at 10 uM after 12 hrs by Western blot analysis; type: functional, cell-based
# HeLa [14] = experiment: Induction of mitochondrial dysfunction in human HeLa cells stably expressing GFP-LC3 at 10 uM after 6 to 24 hrs using anti-Tim23 antibodies by Western blotting; type: functional, cell-based
# HeLa [15] = experiment: Induction of ROS production in human HeLa cells stably expressing GFP-LC3 assessed as increasing number of punctuate GFP-LC3 dots at 5 to 10 uM after 6 hrs by confocal microscopy in presence of ROS scavenger NAC; type: functional, cell-based
# HeLa [16] = experiment: Induction of LC3 autophagy in human HeLa cells stably expressing GFP-LC3 assessed as increasing number of punctuate GFP-LC3 dots at 10 uM after 6 hrs by confocal microscopy in presence of bafilomycin A1; type: functional, cell-based
# HeLa [17] = experiment: Induction of LC3 autophagy in Beclin1 KO human HeLa cells stably expressing GFP-LC3 and transfected of Beclin2 siRNA assessed as increase of the LC3-II level at 10 uM after 6 hrs by Western blotting analysis; type: functional, cell-based
# HeLa [18] = experiment: Induction of LC3 autophagy in human HeLa cells stably expressing GFP-LC3 assessed as increase of the LC3-II level after 12 to 24 hrs by Western blotting analysis; type: functional, cell-based
# HeLa [19] = experiment: Induction of mitochondrial dysfunction in human HeLa cells stably expressing GFP-LC3 assessed as loss of mitochondrial membrane potential at 10 uM after 6 to 24 hrs using TMRE staining by confocal microscopy; type: functional, cell-based
# [20] = molecular target: T1, c-Jun N-terminal kinase, JNK (Homo sapiens); experiment: Induction of JNK phosphorylation in human HeLa cells stably expressing GFP-LC3 assessed as punctuate GFP-LC3 formation at 5 uM after 6 hrs by confocal microscopy; type: cell-based
# HeLa [21] = experiment: Induction of LC3 autophagy in human HeLa cells stably expressing GFP-LC3 assessed as increase of the LC3-II level at 10 uM after 6 hrs by Western blotting analysis in presence of bafilomycin A1; type: functional, cell-based
# HeLa [22] = experiment: Induction of mitochondrial dysfunction in human HeLa cells stably expressing GFP-LC3 assessed as loss of mitochondrial membrane potential at 10 uM after 6 to 24 hrs using TMRE staining by flow cytometry; type: functional, cell-based
# HeLa [23] = experiment: Induction of mitochondrial dysfunction in human HeLa cells at 10 uM after 6 to 24 hrs using anti-Tom20 and anti-Tim23 antibodies by Western blotting; type: functional, cell-based
# HeLa [24] = experiment: Induction of mitochondrial dysfunction in human HeLa cells assessed as reduction in mitochondrial mass at 10 uM after 6 to 24 hrs using anti-Tom20 and anti-Tim23 antibodies by Western blotting; type: functional, cell-based
# HeLa [25] = experiment: Induction of mitochondrial ROS production in human HeLa cells at 5 to 10 uM after 24 hrs using Mito-SOX by flow cytometry; type: functional, cell-based
# PC-12 [26] = experiment: Induction of autophagic degradation of alpha-synuclein in rat PC12 cells cotransfected with GFP-LC3 assessed as co-localiztion of alpha-synuclein with GFP-LC3 puncta by confocal microscopy; type: functional, cell-based
# [27] = molecular target: T1, c-Jun N-terminal kinase, JNK (Homo sapiens); experiment: Induction of JNK phosphorylation in human HeLa cells stably expressing GFP-LC3 assessed as punctuate GFP-LC3 formation at 5 uM after 6 hrs by confocal microscopy in presence of SP600125; type: cell-based
# HeLa [28] = experiment: Induction of LC3 autophagy in human HeLa cells stably expressing GFP-LC3 assessed as increase of the LC3-II level at 10 uM after 6 hrs by immunoblotting; type: functional, cell-based
# HeLa [29] = experiment: Induction of cytosolic ROS production in human HeLa cells at 5 to 10 uM after 24 hrs using DCF by flow cytometry; type: functional, cell-based
# HeLa [30] = experiment: Induction of LC3 autophagy in ATG5 KO human HeLa cells stably expressing GFP-LC3 assessed as increase of the LC3-II level at 10 uM after 6 hrs by Western blotting analysis; type: functional, cell-based
# HeLa [31] = experiment: Induction of mitochondrial dysfunction in human HeLa cells at 10 uM after 6 hrs using anti-Tim23 antibody by confocal microscopy; type: functional, cell-based
structure (smiles),measurement,setting,value
CC(C)=C[C@H]1C[C@H](C)[C@]2(CC[C@]3(C)C[C@@H]4C(C)=CC(=O)[C@@H]4/C(C=O)=C\C[C@H]32)O1,Activity,HeLa [1],inactive
CC(C)=C[C@H]1C[C@H](C)[C@]2(CC[C@]3(C)C[C@@H]4C(C)=CC(=O)[C@]4(O)/C(C=O)=C\C[C@H]32)O1,Activity,HeLa [2],Dose-dependent effect
same,Activity,SH-SY5Y,Active
same,Activity,PC-12 [3],inactive
same,Activity,HeLa [4],Active
same,Activity,U2OS,Active
same,Activity,HeLa [5],tde
same,Activity,HeLa [6],tde
same,Activity,HeLa [7],inactive
same,Activity,[8],inactive
same,Activity,HeLa [9],Active
same,Activity,HeLa [10],inactive
same,Activity,[11],Active
same,Activity,PC-12 [12],inactive
same,Activity,PC-12 [13],Active
same,Activity,HeLa [14],inactive
same,Activity,HeLa [15],inactive
same,Activity,HeLa [16],Active
same,Activity,HeLa [17],inactive
same,Activity,HeLa [18],Dose-dependent effect
same,Activity,HeLa [19],Active
same,Activity,[20],Active
same,Activity,HeLa [21],Active
same,Activity,HeLa [22],Active
same,Activity,HeLa [23],inactive
same,Activity,HeLa [24],inactive
same,Activity,HeLa [25],Active
same,Activity,PC-12 [26],Active
same,Activity,[27],inactive
same,Activity,HeLa [28],Active
same,Activity,HeLa [29],Active
same,Activity,HeLa [30],inactive
same,Activity,HeLa [1],Active
same,Activity,HeLa [31],Active
